From PubChem BioAssay AID624001 (Vanderbilt Specialized Chemistry Center, 2012)
pIC50: −log10 of the molar value.

Target: Phospholipase D1 (Homo sapiens) + Phospholipase D1 (Homo sapiens) (UniProt Q13393+Q13393)
Assay: phospholipase D1 inhibition, isolated enzyme – biochemical, Lib32, assay 3A, dose response (AID 624001)
Conditions: purified PLD1 enzyme activity assay

Phospholipase D1 (Homo sapiens) + Phospholipase D1 (Homo sapiens), sequence (Q13393 whole entry, looked up): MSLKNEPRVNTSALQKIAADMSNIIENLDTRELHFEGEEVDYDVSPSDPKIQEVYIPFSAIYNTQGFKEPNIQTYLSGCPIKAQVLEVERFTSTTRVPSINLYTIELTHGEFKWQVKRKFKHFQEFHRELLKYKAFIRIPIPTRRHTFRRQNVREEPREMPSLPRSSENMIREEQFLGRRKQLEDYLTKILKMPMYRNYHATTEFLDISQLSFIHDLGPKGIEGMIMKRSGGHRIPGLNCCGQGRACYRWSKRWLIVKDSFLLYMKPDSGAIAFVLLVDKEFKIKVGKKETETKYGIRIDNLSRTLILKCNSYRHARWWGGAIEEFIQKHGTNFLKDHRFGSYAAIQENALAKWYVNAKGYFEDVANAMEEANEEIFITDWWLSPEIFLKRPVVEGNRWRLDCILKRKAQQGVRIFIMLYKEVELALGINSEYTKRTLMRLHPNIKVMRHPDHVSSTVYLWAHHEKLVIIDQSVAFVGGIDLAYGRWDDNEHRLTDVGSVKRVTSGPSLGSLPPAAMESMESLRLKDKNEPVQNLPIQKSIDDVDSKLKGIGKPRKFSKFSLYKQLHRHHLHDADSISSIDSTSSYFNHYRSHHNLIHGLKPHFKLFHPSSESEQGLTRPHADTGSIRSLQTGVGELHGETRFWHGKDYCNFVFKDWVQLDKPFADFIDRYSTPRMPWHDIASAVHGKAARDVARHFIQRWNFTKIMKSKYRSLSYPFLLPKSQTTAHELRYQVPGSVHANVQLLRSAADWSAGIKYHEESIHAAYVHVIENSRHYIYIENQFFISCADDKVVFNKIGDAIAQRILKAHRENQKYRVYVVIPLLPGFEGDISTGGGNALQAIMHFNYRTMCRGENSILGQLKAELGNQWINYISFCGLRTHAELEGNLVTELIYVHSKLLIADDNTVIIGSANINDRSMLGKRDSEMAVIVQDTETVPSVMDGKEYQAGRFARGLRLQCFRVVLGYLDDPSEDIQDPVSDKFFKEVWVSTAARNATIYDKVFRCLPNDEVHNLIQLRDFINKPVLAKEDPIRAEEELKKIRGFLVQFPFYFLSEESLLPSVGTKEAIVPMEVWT
Phospholipase D1 (Homo sapiens) + Phospholipase D1 (Homo sapiens), sequence (Q13393 whole entry, looked up): as above

COc1cc(C(=O)NCCN2CCC3(CC2)C(=O)NCN3c2cccc(F)c2)cc(OC)c1OC
pIC50: 4.70
